Measured values from patent publication US20170056496A1 (Sanofi, priority 2008, published 2017).
Where two headings read alike, the source gives them in different places.

Columns and labels:
murine CD38 = target: T1, murine CD38 (Mus musculus, UniProt P56528); assay: Cross-reactivity of the antibody with murine CD38; assay type: binding
T1 sequence (P56528 1-304): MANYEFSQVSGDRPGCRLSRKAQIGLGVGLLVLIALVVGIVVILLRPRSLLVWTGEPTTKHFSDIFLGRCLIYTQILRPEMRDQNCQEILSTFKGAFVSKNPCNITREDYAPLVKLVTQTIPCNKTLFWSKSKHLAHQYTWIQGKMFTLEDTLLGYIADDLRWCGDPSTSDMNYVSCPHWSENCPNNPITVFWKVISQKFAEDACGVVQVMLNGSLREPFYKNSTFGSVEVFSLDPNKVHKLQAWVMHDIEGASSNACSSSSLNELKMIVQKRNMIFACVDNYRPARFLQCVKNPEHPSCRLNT

[1] = for Comments: toxicity statement: toxicity = ≧20% body weight loss or 10% drug death
[2] = CPA alone, 286.1 mg/kg/inj (total 572.2), listed as CPA, 286.1 mg/kg

Compound | cross-reactivity with murine CD38 (murine CD38) | % BWC at nadir (day) ([1]; mouse, in vivo, iv, 40 mg/kg) | deaths (deaths out of mice) [1, 2] | Comments: toxicity statement ([1]; CPA alone, 286.1 mg/kg/inj (total 572.2), 286.1 mg/kg) | Comments: toxicity statement [1, 2] | deaths, percent of mice ([1]; CPA alone, 286.1 mg/kg/injection) [%] | % BWC at nadir (day) ([1]; CPA alone, IV day 11, 15, 68.2 mg/kg/inj (total 136.4), nadir day 18) | % BWC at nadir (day) ([1]; CPA alone, IV day 11, 15, 110.0 mg/kg/inj (total 220.0), nadir day 17) | % BWC at nadir (day) ([1]; CPA alone, IV day 11, 15, 286.1 mg/kg/inj (total 572.2), nadir day 20) | Comments: toxicity statement (HNTD = highest nontoxic dose) ([1]; CPA alone, […] (total 354.8))
hu38SB19: humanized anti-CD38 monoclonal antibody 38SB19; VH SEQ ID NO: 66, VL chosen from SEQ ID NOS: 62 and 64 | lack of cross-reactivity | +5.4 (19) % |  |  |  |  |  |  |  | 
O=P1(N(CCCl)CCCl)NCCCO1 (stereo not shown) [cyclophosphamide] |  |  | ⅗ | Toxicity | Toxic | 60 | −3.8 (18) % | −5.2 (17) % | −21.2 (20) % | HNTD
